Data: patent publication US6849607B2, “Galectin recognized photosensitizers for photodynamic therapy” (Health Research, Inc., priority 2001, dated 2005)

What was measured:
[1] = tested on: Molt-4 human leukemic T-cells; test: In vitro photosensitizing efficacy in Molt-4 cells (MTT); assay type: cell-based; details: Molt-4 cells; for effect of free lactose on PDT efficacy of the photosensitizer: photosensitizer with lactose in a ratio of 1:100, without washing
Experimental: Both cell lines are known to have some expression for Galectin-1 ([…]., Baum, L. G. and Brewer, C. F., Multivalent Protein-carbohydrate Interactions. A New […] for Super Molecular Assembly and Signal Transduction, Biochemistry, 40:3009-3015, 2001). The Molt-4 cells were grown in RPMI 1640 5% FCS (Fetal calf serum) in 100% humidity with 5% CO2. Cells were transferred to phenol red free (PRF) RPMI 1640 media with 1% FCS and plated at 2.5×10^4 cells/well. After 3 hours incubation in the dark, the cells were washed once with PBS and re-suspended in prf RPMI 1640 with 1% FCS. These cells were then illuminated with a […] Quartz Halogen Lamp with IR and bandpass dichroic filters to allow light between 400 nm-700 nm, at a dose rate of 16 mW/cm^2 at 695 nm. The RIF tumor cells were grown in alpha-DMEM with 10% fetal calf serum, penicillin and streptomycin. Cells were maintained in 5% CO2, 95% air and 100% humidity. […] After overnight incubation to allow the cells to attach the photosensitizers 14 were individually added at variable concentrations. After a 3 hr incubation in the dark at 37° C., the cells were washed once with PBS, then irradiated with the same light source as above (Molt-4 procedure), and the optimal cell kill was obtained at a concentration of 1.0 μM. After PDT the cells were washed once and placed in complete media and incubated for 48 hrs. […] Louis, Mo.) was added to each well (Kessel, D., Luo, Y., Photodynamic Therapy: A Mitochondrial Inducer of Apoptosis, Cell Death Differ. 6:28-35, 1999; MacDonald, I., Morgan, […]., Litchfield, D. J. Dougherty, T. J., Subcellular Localization Patterns and their Relationship to Photodynamic Activity of Pyropheophorbide-a Derivatives, Photochem. Photobiol., 70, 789-997, 1999). After 4 hr incubation at 37° C. the MTT+media were removed and 100 μl DMSO was added to solubilize the formazin crystals. The 96-well plate was read on a microtiter plate reader (Miles Inc. Titertek Multiscan Plus MK II) at an absorbance of 560 nm. The results were plotted as percent survival of the corresponding dark (drug no light) control for each compound tested. Each data point represents the mean from 3 separate experiments, and the error bars are the standard deviation. Each experiment was done with 5 replicate wells. […] The cells were then washed once with phosphate buffer saline (PBS), carbohydrate conjugates were then added, and the cells were again incubated for an additional 3 hrs. After treating with light, the cells were re-suspended in fresh media and incubated for 48 hrs. MTT was added to the cells and incubated for an additional 4 hrs. Dimethylsulfoxide (100 μl) was then added to each well to dissolve the formazin crystals. The plates were read on a 96 well plate reader at an absorbance of 560 nm. The data are in replicates of 6 wells and are normalized to control cells (light, no drug). In another set of experiments, a similar procedure was followed, except, the cells were not washed before the light treatment. […] Louis, Mo.) was added to the cells and incubated for an additional 4 hrs. Dimethylsulfoxide (100 μl) was then added to each well to dissolve the formazin crystals. The plates were read on a 96 well plate reader (Miles Inc. Titertek Multiscan Plus MK II) at an absorbance of 560 nm. The data are in replicates of 6 wells and are normalized to control cells (light, no drug).

[2] = tested on: RIF tumor cells; test: Cellular localization in RIF tumor cells with DPH counterstain; assay type: cell-based; details: RIF cells (FIGS. 9a and 9b)
Experimental: For investigating the difference in sites of localization between the photosensitizers with and without carbohydrate moieties, the fluorescence light microscopy experiments were performed in Molt-4 and RIF tumor cell lines. In a typical experiment, cells were imaged at 100× on an inverted fluorescence microscope (Carl Zeiss Inc. Axiovert 35.W.Germany) with a charged-coupled device camera (Dage-MTI, model 104722-02). Images were captured and processed by computer using Image-1 image processing software (Universal Imaging Corp., version 4.0, WestChester, Pa.). The photosensitizer fluorescence was assessed by using 530-585 nm excitation and 615 nm long-pass filter to measure emission while 338-378 nm excitation for DPH, and a 450 nm emission filter for emission (400 nm dichroic). […] In addition, […]1-(4-trimethylammonium)-6-phenyl-1,3,5-hexatriene (TMA-DPH), a hydrophobic fluorescent probe which interacts with living cells by instantaneous incorporation into plasma membrane and becomes fluorescent (Illinger, D., and Kuhry, J. G., The Kinetic Aspects of Intracellular Fluorescence Labeling with TMA-DPH Support the Maturation Model for Endocytosis in L929 Cells, The Journal of Cell Biology, 125:783-794, 1994), was added for the last 5 min of the incubation, cells were washed once with PBS and transferred to a microscope slide for imaging. […]

Compound	in vitro photosensitizing efficacy (in words) ([1]; 2.0 μM, 2a, 3a compared to 1a, 4a compared to 2a and 3a)	effect of free lactose on PDT efficacy of the photosensitizer [1]	cellular localization with DPH as a counterstain [2]
C=C(C=CCO[C@@H]1O[C@H](CO)[C@@H](O[C@@H]2O[C@H](CO)[C@H](O)[C@H](O)[C@H]2O)[C@H](O)[C@H]1O)CN1C(=O)c2c3nc(cc4[nH]c(cc5nc(cc6[nH]c2c(c6C)C1=O)C(CC)=C5C)c(CC)c4C)C(C)C3CCC(=O)OC (mixture of isomers) [4a, Lactose-Chlorin conjugate joined with diene linkage]	better pbotosensitizer	complete inhibition in PDT efficacy	intense plasma membrane fluorescence
Mesopurpurin-18-N-methyl-(2′-butadiene)imide [1a]		did not produce any change in photocytotoxic ability	diffuse intracellular localization
